Measurements taken from patent publication US4535089A, “Alkyloxazolylacetic acid derivative for the treatment of hyperlipidemia” (Tanabe Seiyaku Co., Ltd., priority 1982, dated 1985).

Assays:
platelet aggregation [1] = assay: Platelet aggregation-inhibiting activity in vitro (collagen, platelet-rich plasma); type: cell-based, male SD rats; details: final concentration 100 μg/ml, rat PRP, 37° C.
Protocol: (§1) Blood was collected from the abdominal aorta of male SD rats (body weight: 250-300 g) which were anesthetized with ether. Nine volumes of said blood were mixed with one volume of an aqueous 3.8% (w/v) trisodium citrate solution, and the mixture was centrifuged at 500×g for 5 minutes to give platelet-rich plasma (hereinafter referred to as "PRP") as the supernatant solution. The bottom layer was further centrifuged at 1000×g for 10 minutes to give platelet-poor plasma (hereinafter referred to as "PPP") as the supernatant solution. PRP was diluted with PPP so that the blood platelet count was 8-10×10^5 cells/mm^3.Then, a mixture of 200 μl of said diluted PRP and 25 μl of a test compound solution (final concentration: 100 μg/ml) was introduced into a glass cell of SIENCO aggregometer (Sienco Inc., Morrison, Colo. Model DP-247-D). After the mixture was stirred at 1100 rpm at 37° C. for 2 minutes, 25 μl of a collagen solution (prepared by Holmsen's method described in Biochim. Biophys. Acta, Vol. 186, page 254(1969)) was added thereto, and the percentage inhibition of platelet aggregation was calculated in accordance with the following formula from the degree of the platelet aggregation which was estimated by Born's method (Nature, 194, page 927(1962)). [formula]

platelet aggregation [2] = assay: Platelet aggregation-inhibiting activity after oral administration (ex vivo); type: in vivo; details: Rattus norvegicus, 1 h, 100 mg/kg oral, blood collected one hour after administration, SD rats, read-out: Percentage inhibition of platelet aggregation (%)
Protocol: as §1, with “PRP was diluted with PPP so that the blood platelet count was 8-10×10^5 cells/mm^3.Then, a mixture of 200 μl of said diluted PRP and 25 μl of a test compound solution (final concentration: 100 μg/ml) was introduced into a glass cell of SIENCO aggregometer (Sienco Inc., Morrison, Colo. Model DP-247-D).” left out, “[formula]” left out
A test compound was suspended in a solution containing 0.25% of carboxymethylcellulose (sodium salt) and 0.01% of Tween 80, and the suspension was administered orally to make SD rats (a group of 4 rats). […] Thereafter, said blood was treated in the same manner as described in Experiment 2, and the percentage inhibition of platelet aggregation was calculated in accordance with the following formula: [formula]

serum triglyceride = assay: Hypolipidemic activity: decrease in serum triglyceride; type: in vivo; details: 50 mg % in diet, one week, male SD rats
Protocol: (§2) A test compound (50 mg %) was added to a commercial diet, and male SD rats (body weight: 120-140 g, a group of 5 rats) were fed with the diet ad libitum for one week. After the experimental period, blood was collected from the tail vein of the rats under ether anesthesia. Then, liver was excised from the rats and the weight thereof was measured. On the other hand, serum cholesterol and serum triglyceride were measured according to the methods of Zak (Amer. J. Clin. Pathol., Vol. 24, page 1307(1954)) and Van Handel-Zilversmit (J. Lab. & Clin. Med., Vol. 50, page 152(1957)), respectively. Based on the results obtained above, the decrease (%) in serum cholesterol or triglyceride and increase (%) in liver weight were calculated by the following formulae: [formula]

serum cholesterol = assay: Hypolipidemic activity: decrease in serum cholesterol; type: in vivo; details: 50 mg % in diet, one week, male SD rats
Protocol: as §2

liver = assay: Increase in liver weight (hypolipidemic experiment); type: in vivo; details: 50 mg % in diet, one week, male SD rats
Protocol: as §2

mice = assay: Acute oral toxicity in mice; type: in vivo; details: 1000 mg/kg oral, 7 days after administration
Text: The compound (I) (R^2 =H) of the present invention can be used for pharmaceutical use in the form of either a free acid or a pharmaceutically acceptable salt thereof. Pharmaceutically acceptable salts of the compound (I) (R^2 =H) include, for example, alkali metal salts such as sodium and potassium salts; alkaline earth metal salts such as calcium and magnesium salts; salts thereof with amino acids such as lysine, ornithine, arginine and histidine salts; and ammonium salt. Such pharmaceutically acceptable salts may be prepared, for example, by neutralizing the free acid with a stoichiometrically equimolar amount of a base such as an alkali metal hydroxide, an alkaline earth metal hydroxide, ammonia or a basic amino acid. The compound (I) and a salt thereof can be administered either orally or parenterally. For oral administration, the compound (I) or a salt thereof may be used in the form of tablets, powder, capsules, granules and the like. Known medicinal excipients such as calcium carbonate, calcium phosphate, corn starch, potato starch, sugar, lactose, talc, magnesium stearate and so forth may be used in making these pharmaceutical preparations. Alternatively, the compound (I) or a salt thereof may be used for oral administration in the form of aqueous or oily suspensions, solutions, syrps or elixirs. […]

Structure (SMILES)	inhibition at 100 µg/mL (platelet aggregation [1]) [%]	inhibition at 100 mg/kg (platelet aggregation [2]) [%]	Decrease (%) in serum triglyceride (serum triglyceride) [%]	Decrease (%) in serum cholesterol (serum cholesterol) [%]	increase (%) in liver weight (liver) [%]	mortality (mice)
CC(C)c1oc(-c2ccccc2)nc1CC(=O)O [2-(2-phenyl-5-isopropyl-4-oxazolyl)acetic acid]	≥ 10	97 ± 2	–	–	–	–
CC(C)c1oc(-c2ccc(Cl)cc2)nc1CC(=O)O [2-[2-(4-chlorophenyl)-5-isopropyl-4-oxazolyl]acetic acid]	≥ 10	–	39	12	–	–
Cc1oc(-c2ccc(Cl)cc2)nc1CC(=O)O [2-[2-(4-chlorophenyl)-5-methyl-4-oxazolyl]acetic acid]	–	–	48	14	–	–
CCCCCc1oc(-c2ccc(Cl)cc2)nc1CC(=O)O [2-[2-(4-chlorophenyl)-5-n-pentyl-4-oxazolyl]acetic acid]	–	–	60	19	–	–
CC(C)Cc1oc(-c2ccc(F)cc2)nc1CC(=O)O [2-[2-(4-fluorophenyl)-5-isobutyl-4-oxazolyl]acetic acid]	–	–	51	11	–	–
CC(C)c1oc(-c2ccc(F)cc2)nc1CC(=O)O [2-[2-(4-fluorophenyl)-5-isopropyl-4-oxazolyl]acetic acid]	≥ 10	–	42	21	–	–
CCOC(=O)C(C)(C)Oc1ccc(Cl)cc1 [Clofibrate, 2-(4-chlorophenoxy)-2-methylpropanoic acid ethyl ester, reference compound]	< 10	53 ± 19	16	15	12	–
CCOC(=O)Cc1nc(-c2ccc(Cl)cc2)oc1CC(C)C [ethyl 2-[2-(4-chlorophenyl)-5-isobutyl-4-oxazolyl]acetate]	≥ 10	–	–	–	–	–
CCOC(=O)Cc1nc(-c2ccc(Cl)cc2)oc1C(C)C [ethyl 2-[2-(4-chlorophenyl)-5-isopropyl-4-oxazolyl]acetate]	≥ 10	–	55	18	–	–
CCOC(=O)Cc1nc(-c2ccc(Cl)cc2)oc1C [ethyl 2-[2-(4-chlorophenyl)-5-methyl-4-oxazolyl]acetate]	–	–	36	19	–	no mouse dies
CCCCCc1oc(-c2ccc(Cl)cc2)nc1CC(=O)OCC [ethyl 2-[2-(4-chlorophenyl)-5-n-pentyl-4-oxazolyl]acetate]	–	–	52	15	–	no mouse dies
CCOC(=O)Cc1nc(-c2ccc(F)cc2)oc1CC(C)C [ethyl 2-[2-(4-fluorophenyl)-5-isobutyl-4-oxazolyl]acetate]	≥ 10	–	66	13	–	–
CCOC(=O)Cc1nc(-c2ccc(F)cc2)oc1C(C)C [ethyl 2-[2-(4-fluorophenyl)-5-isopropyl-4-oxazolyl]acetate]	≥ 10	–	33	23	–	–
